Reference: PubChem BioAssay (NCI)
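Five compound concentrations were applied to cells in 96-well plates for 48 hours; endpoints were derived by simple linear interpolation of the resulting dose-response curve. GI50 marks 50% less growth. TGI marks complete inhibition of growth.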

Legend:
Assay in all cases: growth of human tumour cells (NCI), 48 h
M14 melanoma = system: M14 melanoma
COLO 205 colon = system: COLO 205 colon
NCI-H460 lung = system: NCI-H460 lung
MALME-3M melanoma = system: MALME-3M melanoma
KM12 colon = system: KM12 colon
SK-MEL-5 melanoma = system: SK-MEL-5 melanoma
HCT-116 colon = system: HCT-116 colon
TK-10 renal = system: TK-10 renal
ACHN renal = system: ACHN renal
LOX IMVI melanoma = system: LOX IMVI melanoma

Row | SMILES | TGI (M14 melanoma) [µM] | TGI (COLO 205 colon) [µM] | TGI (NCI-H460 lung) [µM] | TGI (MALME-3M melanoma) [µM] | TGI (KM12 colon) [µM] | TGI (SK-MEL-5 melanoma) [µM] | TGI (HCT-116 colon) [µM] | TGI (TK-10 renal) [µM] | TGI (ACHN renal) [µM] | TGI (LOX IMVI melanoma) [µM] | GI50 (M14 melanoma) [µM] | GI50 (COLO 205 colon) [µM] | GI50 (NCI-H460 lung) [µM] | GI50 (KM12 colon) [µM] | GI50 (SK-MEL-5 melanoma) [µM] | GI50 (LOX IMVI melanoma) [µM] | GI50 (HCT-116 colon) [µM] | GI50 (TK-10 renal) [µM] | GI50 (ACHN renal) [µM] | GI50 (MALME-3M melanoma) [µM]
1 | Cc1[nH]nc(-c2ccon2)c1N=O | 43.5 | 49.4 | > 100 | 38.2 | 38.4 | 34.3 | 56.8 | 32.9 | 28.4 |  |  |  |  |  |  |  |  |  |  | 
2 | CCCC(S(=O)(=O)c1ccccc1)S(=O)(=O)c1ccccc1 | > 100 |  | > 100 | > 100 | > 100 | > 100 | > 100 | > 100 | > 100 |  |  |  |  |  |  |  |  |  |  | 
3 | NC1=NC(=O)C(CC(=O)Nc2ccc(Cl)cc2Cl)S1 (stereo unspecified) | > 100 | > 100 | > 100 | > 100 | > 100 | > 100 |  | > 100 | > 100 | > 100 |  |  |  |  |  |  |  |  |  | 
4 | O=C1C=C(O)C(=Cc2c(O)cc(O)cc2O)C(O)=C1 | > 100 | > 100 | > 100 | > 100 | > 100 | > 100 | > 100 | > 100 |  | > 100 |  |  |  |  |  |  |  |  |  | 
5 | Cc1ccc(C2C3Cc4ccccc4C3=NN2c2ccc(S(=O)(=O)/N=c3\scc(-c4ccccc4)n3-c3ccccc3)cc2)cc1 (stereo unspecified) | > 100 | 52.1 | 45.1 |  | 65.2 | 26 | > 100 | 63.6 | 50.3 | 31.2 | 30.6 | 23.3 | 18.1 | 20.2 | 13.2 | 17.4 | 18.6 | 19.1 | 21.6 | 
6 | O=C1c2ccccc2N2OC3(N4CCCC4)CCCCC3C12c1ccccc1 (stereo unspecified) | 34.6 | 31 |  | 38.7 |  | 32 | 27.6 |  | 43.8 |  |  |  |  |  |  |  |  |  |  | 
7 | COc1cc2cc(Oc3ccc(NC(=O)c4ccc(Cl)c(Cl)c4)cc3)c(C)nc2cc1OC |  | > 100 | > 100 | > 100 | > 100 | > 100 | > 100 | > 100 | > 100 | > 100 |  | 6.44 | 25.4 | 12.7 | 4.99 | > 100 | 4.26 | 9.81 | 8.63 | > 100
8 | CCOC(=O)c1cc2c(cc1Cl)SC(=Nc1ccccc1)N(S(=O)(=O)c1ccc(Br)s1)S2(=O)=O | 35 | > 100 | 51.1 |  | 33.3 | 25.2 | 30.8 | 30.4 | 27.5 | 24.1 | 15.2 | 25.2 | 19.4 | 17.6 | 12.1 | 11.2 | 14.8 | 15.9 | 14.4 | 
9 | CCC(=O)Nc1ccc(N2C(=O)/C(=C/c3ccc(OC)cc3)N=C2c2ccccc2)cc1 | 43.3 | > 50 | > 50 |  | > 50 | > 50 | 8.9 | > 50 | 16 | 13.2 | 8.6 | 9.23 | 2.1 | 3.65 | 7.16 | 2.51 | 2.41 | 22.8 | 5.62 | 
10 | CC(=O)/C(=C\c1ccccc1O)C(=O)Nc1ccccc1C | 39.9 |  | > 100 | 47.7 | 41.5 | 27.9 | > 100 |  | 40.9 | 27.6 |  |  |  |  |  |  |  |  |  | 
11 | Cc1ccccc1-n1c(N)c(-c2nc3ccccc3[nH]2)sc1=S | 36.5 | 49 |  | 45.1 | 39.9 | 36.6 |  | 85.8 | > 100 | 52.6 |  |  |  |  |  |  |  |  |  | 
12 | C[CH2][Hg][S]c1ccccc1C(=O)O | 2.74 | 2.86 | 8.98 | 2.25 | 13.3 |  | 2.58 | 2.73 | 2.83 | 2.16 | 1.36 | 1.24 | 2.64 | 3.82 |  | 0.488 | 1.31 | 1.42 | 1.49 | 0.801
13 | CN1CCc2nc3sc(C(N)=O)c(N)c3c(-c3cccs3)c2C1 | 19.4 | 3.66 | > 100 | 38.4 | > 100 | 5.24 | > 100 | 13.1 |  | > 100 | 4.19 | 1.43 | 3.71 | 2.7 | 1.43 | 1.27 | 2.31 | 3.32 |  | 5.06
14 | Fc1cccc(F)c1C(Nc1nncs1)Nc1nncs1 | > 100 | > 100 | > 100 | > 100 | > 100 | > 100 | > 100 | > 100 | > 100 |  |  |  |  |  |  |  |  |  |  | 
15 | CC(=O)O[C@@H]1C[C@@]2(C)[C@@H]3CC=C4[C@@H](C[C@H](O)C(=O)C4(C)C)[C@]3(C)C(=O)C[C@]2(C)[C@H]1[C@@](C)(O)C(=O)/C=C/C(C)(C)OC(C)=O | 14.9 | > 39.7 | 16.3 |  | 39.2 | 11 | > 72.9 | > 37.8 | 3.44 | > 33 |  |  |  |  |  |  |  |  |  | 
16 | O=C(NCCNCCO)c1cccc2ccc(-c3ccccc3)nc12 | 17.8 | 13.6 | 11.6 |  | 18.3 | 12.5 | 11.8 | 6.72 | 5.65 | 10.5 |  |  |  |  |  |  |  |  |  | 
17 | COc1cc(-c2nn(-c3cccc(NC(=O)CCN4CCN(Cc5ccccc5)CC4)c3)cc2-c2ccncc2)ccc1Cl | 2.21 |  | 1.46 | 2.55 | 3.86 | 2.31 | 1.75 | 12.2 | 12.8 | 1.98 | 0.696 |  | 0.38 | 0.583 | 1.1 | 0.661 | 0.406 | 2.93 | 1.2 | 1.01
18 | O=C(O)CCNS(=O)(=O)c1ccc([N+](=O)[O-])cc1 | > 100 | > 100 | > 100 | > 100 | > 100 | > 100 |  | > 100 | > 100 | > 100 |  |  |  |  |  |  |  |  |  | 
19 | N#CNc1nc(N)c(-c2ccc(Cl)cc2)c(C(=O)Nc2nccs2)n1 | > 100 |  | > 100 | > 100 | > 100 | > 100 | > 100 | > 100 | > 100 | > 100 |  |  |  |  |  |  |  |  |  | 
20 | Fc1ccc(/C=N/n2c(-c3ccc(F)c(Cl)c3)n[nH]c2=S)cc1 | 71.6 | > 100 | 38.3 | 60.2 | > 100 | > 100 | 29.9 | 51 |  |  | 23.8 | 37.3 | 19.2 | 43.6 | 42.9 |  | 16.3 | 24.1 |  | 18.3
21 | O=C(/C=C/c1ccc(Cl)c(Cl)c1)c1cccc2ccccc12 | 30.9 | 26.2 | 19.3 | 32.4 | 16.3 | 34.7 | 15.2 | 30.5 | 30 |  |  |  |  |  |  |  |  |  |  | 
22 | Cc1cc2c(c(C(N)=O)c1C)-c1cc(Cl)cc(Cl)c1C2=O | > 100 | > 100 | > 100 | > 100 | > 100 |  | > 100 | > 100 | > 100 | > 100 |  |  |  |  |  |  |  |  |  | 
23 | Cn1ccnc1Oc1ccc(Cl)cc1 | 37.2 | 25.7 | > 100 | 10.2 |  | 27.1 | 24.3 | 32.6 | 25.4 | 36.6 |  |  |  |  |  |  |  |  |  | 
24 | O=C1OC(=O)c2c1c(-c1ccccc1)nc1ccccc21 | > 100 | > 100 | > 100 | > 100 | > 100 | > 100 | > 100 | > 100 |  | > 100 |  |  |  |  |  |  |  |  |  | 
25 | C/C(=N\O)c1cccc(Nc2cc(-n3ccnc3)c3ccccc3n2)c1 | 24.1 | 29.1 | > 100 | 25.3 | 31.8 | 27.2 | 26.8 | 38.8 | 19.4 |  | 11.6 | 13 | > 100 | 10.5 | 13.9 |  | 13.9 | 15.6 | 7.31 | 11.1
26 | CC(C)(C)c1cc2nc(c1)C(C(F)(F)F)(C(F)(F)F)OB(Br)OC2(C(F)(F)F)C(F)(F)F | 3.38 | 0.364 |  | 4.42 | 11.3 |  |  | 5.5 |  | 3.78 |  |  |  |  |  |  |  |  |  | 
27 | CN=C1OC2(c3ccccc3)C3=C(OC(=NC)N2C)C(=O)OC3(c2ccccc2)N1C (stereo unspecified) | > 100 | > 100 | > 100 |  | > 100 | > 100 | > 100 | > 100 | > 100 |  |  |  |  |  |  |  |  |  |  | 
28 | C=C1[C@@H](O)O[C@H]2[C@H]1C[C@H](OC(C)=O)[C@]13C(=O)O[C@H]4C[C@](C)(O)[C@H]([C@H]41)C31C=C(C)[C@]2(O)O1 |  | > 100 | 96.9 | 46.1 | > 100 |  | 38.2 |  | > 100 | > 100 |  | 48.9 | 32.5 | 36.8 |  | 29.6 | 19.8 |  | 49.8 | 16.3
